This is an account of results in patent publication US6362369B1, “Phthalic acid diamide derivatives fluorine-containing aniline compounds as starting material, agricultural and horticultural insecticides, and a method for application of the insecticides” (Nihon Nohyaku Co., Ltd., priority 1997, dated 2002).

What all share (type): in vivo
Assay [1] relates to diamondback moth (Plutella xylostella). Briefly: Insecticidal effect on diamondback moth (Test Example 1). The conditions noted are these: diamondback moth; judged by the mortality criterion of Test Example 1. Summed up: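 Oviposition by adults on Chinese cabbage seedling; immersion; air-dry; 25° C room. Count of hatched larvae at day 6 post-immersion → mortality → effect graded by criterion. Triplicate, 10 insects/group.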

Assay [2] concerns rice leafroller (Cnaphalocrocis medinalis). Briefly: Insecticidal effect on rice leafroller (Test Example 3). The conditions noted are these: 500 ppm; rice lamina immersed; third-instar larvae of rice leafroller; four days after inoculation; 25° C., humidity 70%. A digest of the protocol: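 Insecticidal effect is judged by a predefined criterion from dead/alive counts four days after infesting air-dried lamina with third-instar larvae, kept on moistened filter paper at 25° C, 70% humidity.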

For assay [3], the system named is common cutworm (Spodoptera Litura). Briefly: Insecticidal effect on common cutworm (Test Example 2). As to conditions: 500 ppm; cabbage leaf immersed; second-instar larvae of common cutworm; eight days after inoculation; 25° C. A digest of the protocol: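 Mortality is the read-out: larvae are counted as dead or alive on day 8 and the percentage is graded by an effect criterion. Second-instar larvae are kept with the air-dried treated material in a sealed dish at 25° C, in triplicate groups of ten.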

For the compound `Cc1cc(OCC(F)(F)C(F)F)ccc1NC(=O)c1cccc(I)c1C(=O)NC(C)C` [compound 388], the “Insecticidal effect, Test Example 1” value in assay [1] is reported as “A (100)”. Moreover, the “Insecticidal effect, Test Example 3” value in assay [2] is listed as “B (99-90)”. Besides, the “Insecticidal effect, Test Example 2” value in assay [3] is given as “A (100)”.

On to `Cc1cc(OC(F)(F)Br)ccc1NC(=O)c1cccc(I)c1C(=O)NC(C)C` [compound 389], for which the “Insecticidal effect, Test Example 1” value in assay [1] is listed as “A (100)”. Besides, the “Insecticidal effect, Test Example 3” value in assay [2] is on record as “A (100)”. Besides, in assay [3], the “Insecticidal effect, Test Example 2” value is given as “A (100)”.

In the case of `Cc1cc(OC(F)(F)C(F)F)ccc1NC(=O)c1cccc(I)c1C(=O)NC(C)C` [compound 390], the “Insecticidal effect, Test Example 1” value in assay [1] was “A (100)”. Further, in assay [2], the “Insecticidal effect, Test Example 3” value is reported as “A (100)”. Also, the “Insecticidal effect, Test Example 2” value in assay [3] was “A (100)”.

Turning to `Cc1cc(OC(F)(F)C(F)F)c(Cl)cc1NC(=O)c1cccc(I)c1C(=O)NC(C)C` [compound 391], in assay [1], the “Insecticidal effect, Test Example 1” value is “A (100)”. The “Insecticidal effect, Test Example 3” value in assay [2] is recorded as “A (100)”. Further, the “Insecticidal effect, Test Example 2” value in assay [3] is “A (100)”.

In the case of `Cc1cc(OC(F)(F)C(F)Cl)ccc1NC(=O)c1cccc(I)c1C(=O)NC(C)C` (stereo not drawn) [compound 392], the “Insecticidal effect, Test Example 1” value in assay [1] is reported as “A (100)”. The “Insecticidal effect, Test Example 3” value in assay [2] is “A (100)”. The “Insecticidal effect, Test Example 2” value in assay [3] is listed as “A (100)”.

With `Cc1cc(OC(F)(F)C(F)C(F)(F)F)ccc1NC(=O)c1cccc(I)c1C(=O)NC(C)C` (stereo not drawn) [compound 393], in assay [1], the “Insecticidal effect, Test Example 1” value was “A (100)”. Besides, the “Insecticidal effect, Test Example 3” value in assay [2] is recorded as “A (100)”. Moreover, the “Insecticidal effect, Test Example 2” value in assay [3] is “A (100)”.

With `Cc1cc(OC(F)(F)C(F)(Br)C(F)(F)F)ccc1NC(=O)c1cccc(I)c1C(=O)NC(C)C` (stereo not drawn) [compound 394], the “Insecticidal effect, Test Example 1” value in assay [1] is on record as “A (100)”. In assay [2], the “Insecticidal effect, Test Example 3” value is recorded as “A (100)”. For the same compound, the “Insecticidal effect, Test Example 2” value in assay [3] was “A (100)”.

For the compound `Cc1cc(OC(F)(F)C(F)OC(F)(F)F)ccc1NC(=O)c1cccc(I)c1C(=O)NC(C)C` (stereo not drawn) [compound 395], the “Insecticidal effect, Test Example 1” value in assay [1] is recorded as “A (100)”. In assay [2], the “Insecticidal effect, Test Example 3” value was “A (100)”. The “Insecticidal effect, Test Example 2” value in assay [3] is on record as “A (100)”.

As to `Cc1cc(OC(F)F)c(Cl)cc1NC(=O)c1cccc(I)c1C(=O)NC(C)C` [compound 396], the “Insecticidal effect, Test Example 1” value in assay [1] was “A (100)”. Besides, the “Insecticidal effect, Test Example 3” value in assay [2] is “A (100)”. In addition, the “Insecticidal effect, Test Example 2” value in assay [3] is recorded as “A (100)”.

With `Cc1cc(Oc2c(F)c(F)c(F)c(F)c2F)ccc1NC(=O)c1cccc(I)c1C(=O)NC(C)C` [compound 397], the “Insecticidal effect, Test Example 1” value in assay [1] was “A (100)”. Besides, the “Insecticidal effect, Test Example 3” value in assay [2] is recorded as “A (100)”. Besides, the “Insecticidal effect, Test Example 2” value in assay [3] is on record as “A (100)”.

Regarding `Cc1cc(Oc2ccc(C(F)(F)F)cn2)ccc1NC(=O)c1cccc(I)c1C(=O)NC(C)C` [compound 399], in assay [1], the “Insecticidal effect, Test Example 1” value was “A (100)”. The “Insecticidal effect, Test Example 3” value in assay [2] is listed as “A (100)”. For the same compound, in assay [3], the “Insecticidal effect, Test Example 2” value is “A (100)”.

As for `Cc1cc(Oc2ncc(C(F)(F)F)cc2Cl)ccc1NC(=O)c1cccc(I)c1C(=O)NC(C)C` [compound 400], in assay [1], the “Insecticidal effect, Test Example 1” value is recorded as “A (100)”. Further, in assay [2], the “Insecticidal effect, Test Example 3” value is “A (100)”. Further, the “Insecticidal effect, Test Example 2” value in assay [3] is listed as “D (79-50)”.

`Cc1cc(SC(F)(F)C(F)(F)C(F)(F)F)ccc1NC(=O)c1cccc(I)c1C(=O)NC(C)C` [compound 403]: in assay [1], the “Insecticidal effect, Test Example 1” value was “A (100)”. The “Insecticidal effect, Test Example 3” value in assay [2] is “A (100)”. Moreover, in assay [3], the “Insecticidal effect, Test Example 2” value is “B (99-90)”.

Consider `Cc1cc(Sc2ccc(Cl)cc2)ccc1NC(=O)c1cccc(I)c1C(=O)NC(C)C` [compound 404], for which the “Insecticidal effect, Test Example 1” value in assay [1] is on record as “A (100)”. In addition, in assay [2], the “Insecticidal effect, Test Example 3” value is “A (100)”. The “Insecticidal effect, Test Example 2” value in assay [3] is given as “A (100)”.
